Measurements taken from patent publication US20110150976A1, “TRANSDERMAL DELIVERY OF OLIGOSACCHARIDES” (TRANSPHARMA MEDICAL LTD., priority 2008, published 2011).
Like-named read-outs stand apart in the source and are kept apart here.

Key:
[1] = set-up: species or system pigs; details: pig, in vivo
Experimental: Transdermal delivery of fondaparinux from a printed patch through micro-channels generated in pig skin by the […] apparatus was evaluated. The experiment included the following groups: • 1. […] To prepare the printed patches containing fondaparinux, a concentrated reconstituted solution of Arixtra® (fondaparinux sodium) was applied onto the patch and then air-dried. Each patch was affixed to the […] treated skin for 24 hours.

[2] = In-vitro dissolution of printed patches; assay type: physicochemical; details: printed patches 5 mg fondaparinux with 3.6 mg NaCl, from lyophilized Arixtra
Experimental: As the printed patches were prepared following lyophilization of the Arixtra® for injection, 5 mg fondaparinux in each patch contained 3.6 mg of NaCl (42% of the total patch solids).

[3] = set-up: species or system pigs; details: pig, in vivo; remark: listed apart in the source
Experimental: Transdermal delivery of fondaparinux from a silicon pouch containing the pentasaccharide in solution through micro-channels generated in pig skin by the […] apparatus was evaluated. The experiment included the following groups: • 1.

[4] = Histological assessment of skin after micro-channel generation and treatment with fondaparinux; assay type: in vivo; details: pigs, 450 MCs/cm^2, dried patch 1.25 mg, biopsies 13 and 22.5 hours post application
Experimental: Histological assessments were performed in order to determine the effect of application of a high concentration of fondaparinux to skin in which micro-channels have been generated. Pigs were treated with […] apparatus to generate micro-channels at a density of 450 MCs/cm^2 (burst length of 6000 μsec). […] All biopsies (8 mm diameter) were fixed in 4% formaldehyde buffer for at least 48 hrs followed by staining with eosin and hematoxylin (H&E).

[5] = human; cited from earlier work

- bioavailability from printed patches ([1]; 5 mg): 11-17%
- % BA (bioavailability) ([1]; sc, 1 mg): 100%
- AUC ([1]; sc, 1 mg): 291 1.25 ± 2242.07 ng*h/ml
- Tmax ([1]; sc, 1 mg): 2 h
- in-vitro dissolution of printed patches [2]: ~85%
- AUC ([3]; sc, 1 mg): 1533.33 ± 1303.96 ng·h/mL
- Cmax ([3]; sc, 1 mg): 235.72 ± 47.79 ng/mL
- AUC ([3]; topical or ocular, 28 mg): 5659.33 ± 956.94 ng·h/mL
- Cmax ([3]; topical or ocular, 28 mg): 709.74 ± 103.61 ng/mL
- abnormalities in the skin tissue (histology, H&E) [4]: no abnormalities
- signs of bleeding at the site of the treated skin (histology, H&E) [4]: no signs of bleeding
SMILES: CO[C@H]1O[C@H](COS(=O)(=O)O)[C@@H](O[C@@H]2O[C@@H](C(=O)O)[C@@H](O[C@H]3O[C@H](COS(=O)(=O)O)[C@@H](O[C@@H]4O[C@H](C(=O)O)[C@@H](O[C@H]5O[C@H](COS(=O)(=O)O)[C@@H](O)[C@H](O)[C@H]5NS(=O)(=O)O)[C@H](O)[C@H]4O)[C@H](OS(=O)(=O)O)[C@H]3NS(=O)(=O)O)[C@H](O)[C@H]2OS(=O)(=O)O)[C@H](O)[C@H]1NS(=O)(=O)O [fondaparinux]
- half-life [5]: approximately 17 hours
